Assay results: PubChem BioAssay AID1963863 (Molecular Pharmacology Branch, DTP, NCI, 2024)

Test system: 931267-113-T-J1-PDC KRAS spheroid with HUVEC/MSC, viability
Experiment: Anticancer human tumor 931267-113-T-J1-PDC patient-derived colon adenocarcinoma cell line growth inhibition [KRAS2]
Settings: for viability, T/C: stronger effect = lower value
Summary of the method: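 KRAS-mutant tumor cells were grown as spheroids with HUVEC endothelial cells and human MSCs as stroma. Targeted agents were tested alone and with KRAS pathway inhibitors. Doses started at or near clinical Cmax, or 10 microM, descending half-log.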

[1] = curve of first compound, second compound 0.1 µM
[2] = curve of first compound, second compound 0.316 µM
[3] = curve of first compound, second compound 1 µM
[4] = curve of first compound, second compound 3.16 µM
[5] = curve of first compound, second compound 10 µM
[6] = second compound 0.1 µM, first compound 0.0316 µM
[7] = second compound 0.1 µM, first compound 0.1 µM
[8] = second compound 0.1 µM, first compound 0.316 µM
[9] = second compound 0.1 µM, first compound 1 µM
[10] = second compound 0.1 µM, first compound 3.16 µM
[11] = second compound 0.316 µM, first compound 0.0316 µM
[12] = second compound 0.316 µM, first compound 0.1 µM
[13] = second compound 0.316 µM, first compound 0.316 µM
[14] = second compound 0.316 µM, first compound 1 µM
[15] = second compound 0.316 µM, first compound 3.16 µM
[16] = second compound 1 µM, first compound 0.0316 µM
[17] = second compound 1 µM, first compound 0.1 µM
[18] = second compound 1 µM, first compound 0.316 µM
[19] = second compound 1 µM, first compound 1 µM
[20] = second compound 1 µM, first compound 3.16 µM
[21] = second compound 3.16 µM, first compound 0.0316 µM
[22] = second compound 3.16 µM, first compound 0.1 µM
[23] = second compound 3.16 µM, first compound 0.316 µM
[24] = second compound 3.16 µM, first compound 1 µM
[25] = second compound 3.16 µM, first compound 3.16 µM
[26] = second compound 10 µM, first compound 0.0316 µM
[27] = second compound 10 µM, first compound 0.1 µM
[28] = second compound 10 µM, first compound 0.316 µM
[29] = second compound 10 µM, first compound 1 µM
[30] = second compound 10 µM, first compound 3.16 µM
[31] = second compound 0.1 µM, first compound 10 µM
[32] = second compound 0.316 µM, first compound 10 µM
[33] = second compound 1 µM, first compound 10 µM
[34] = second compound 3.16 µM, first compound 10 µM
[35] = second compound 10 µM, first compound 10 µM
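Further: compound exposure lasted 7 days before the readout.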
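Wherever viability, T/C is given: 100% = DMSO vehicle control viability.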

Row | SMILES | IC50 [1] [µM] | IC50 [2] [µM] | IC50 [3] [µM] | IC50 [4] [µM] | IC50 [5] [µM] | viability, T/C [6] [%] | viability, T/C [7] [%] | viability, T/C [8] [%] | viability, T/C [9] [%] | viability, T/C [10] [%] | viability, T/C [11] [%] | viability, T/C [12] [%] | viability, T/C [13] [%] | viability, T/C [14] [%] | viability, T/C [15] [%] | viability, T/C [16] [%] | viability, T/C [17] [%] | viability, T/C [18] [%] | viability, T/C [19] [%] | viability, T/C [20] [%] | also measured
1 | CC(=O)OC12COC1CC(O)C1(C)C(=O)C(O)C3=C(C)C(OC(=O)C(O)C(NC(=O)OC(C)(C)C)c4ccccc4)CC(O)(C(OC(=O)c4ccccc4)C21)C3(C)C (centres undefined) + COc1cc2nc(C)nc(NC(C)c3cc(N)cc(C(F)(F)F)c3)c2cc1OC1CCOC1 | > 3.16 | > 3.16 | > 3.16 | > 3.16 | > 3.16 | 77.7 | 81.3 | 83.7 | 92.4 | 106 | 76.3 | 92 | 76.7 | 82.6 | 72.1 | 105 | 88.2 | 88 | 96.7 | 56.9 | viability, T/C (second compound 0.1 µM, first compound 0.01 µM): 84.9%; viability, T/C (second compound 0.316 µM, first compound 0.01 µM): 88%; viability, T/C (second compound 1 µM, first compound 0.01 µM): 95%; viability, T/C (second compound 3.16 µM, first compound 0.01 µM): 90%; viability, T/C [21]: 107%; viability, T/C [22]: 76.5%; viability, T/C [23]: 83.9%; viability, T/C [24]: 83.8%; viability, T/C [25]: 84.9%; viability, T/C (second compound 10 µM, first compound 0.01 µM): 98%; viability, T/C [26]: 110%; viability, T/C [27]: 96.2%; viability, T/C [28]: 84.3%; viability, T/C [29]: 72.5%; viability, T/C [30]: 92%
2 | CC(=O)OC12COC1CC(O)C1(C)C(=O)C(O)C3=C(C)C(OC(=O)C(O)C(NC(=O)OC(C)(C)C)c4ccccc4)CC(O)(C(OC(=O)c4ccccc4)C21)C3(C)C (centres undefined) | – | – | – | – | – | – | – | – | – | – | – | – | – | – | – | – | – | – | – | – | viability, T/C (compound 0.0316 µM): 91.1% [middle of 5 runs]; viability, T/C (compound 0.1 µM): 84.7% [middle of 5 runs]; viability, T/C (compound 0.316 µM): 86.2% [middle of 5 runs]; IC50 (curve of compound): > 3.16 µM
3 | CC(C)NCC(C(=O)N1CCN(c2ncnc3c2C(C)CC3O)CC1)c1ccc(Cl)cc1 (centres undefined) + CNCc1ccccc1-c1csc(C(C)Nc2nc(C)nc3cc(OC)c(OC)cc23)c1 | 4.93 | 5.43 | 0.0905 | < 0.0316 | < 0.0316 | 96.3 | 90.4 | 79 | 68.4 | 59.3 | 76 | 70 | 63.6 | 54.6 | 69.1 | 60.7 | 47.9 | 38.9 | 33.4 | 21.6 | viability, T/C [31]: 38.6%; viability, T/C [32]: 31.1%; viability, T/C [33]: 19.2%; viability, T/C [21]: 0.1%; viability, T/C [22]: 0.18%; viability, T/C [23]: 0.09%; viability, T/C [24]: 0.1%; viability, T/C [25]: 0.14%; viability, T/C [34]: 0.16%; viability, T/C [26]: 0.17%; viability, T/C [27]: 0.15%; viability, T/C [28]: 0.15%; viability, T/C [29]: 0.14%; viability, T/C [30]: 0.25%; viability, T/C [35]: 1.22%
4 | COc1cc2nccc(Oc3ccc(NC(=O)C4(C(=O)Nc5ccc(F)cc5)CC4)cc3)c2cc1OC + CNCc1ccccc1-c1csc(C(C)Nc2nc(C)nc3cc(OC)c(OC)cc23)c1 | 3.21 | 1.77 | < 0.0316 | < 0.0316 | < 0.0316 | 86.3 | 93.1 | 107 | 91 | 50.1 | 85.5 | 86.8 | 81.9 | 72.3 | 27.2 | 45.3 | 52.9 | 39.5 | 25.4 | 0.22 | viability, T/C [31]: 48.1%; viability, T/C [32]: 21.9%; viability, T/C [33]: 1.76%; viability, T/C [21]: 0.08%; viability, T/C [22]: 0.19%; viability, T/C [23]: 0.35%; viability, T/C [24]: 0.07%; viability, T/C [25]: 0.04%; viability, T/C [34]: 0.2%; viability, T/C [26]: 0.14%; viability, T/C [27]: 0.17%; viability, T/C [28]: 0.13%; viability, T/C [29]: 0.12%; viability, T/C [30]: 0.13%; viability, T/C [35]: 0.21%
